Measurements from patent US4634707A, “5-Pyrimidinecarboxamides and treatment of leukemia and tumors therewith” (Uniroyal Chemical Company, priority 1984, dated 1987).

Tested on: L1210 leukemia
Experiment: NCI 3LE31, i.p.-implanted L1210 lymphoid leukemia
Format: in vivo, DBA/2 mice
Settings: for activity in i.p.-implanted lymphoid leukemia test (in words): 3LE31, reproducible T/C of 150% or higher is considered significant activity; for number of mice cured (surviving after thirty day test period): six mice
Protocol: The spectrum of antitumor activity of the compound of Example 1 was determined employing a number of standard National Cancer Institute (NCI) protocols. The antitumor activity was determined in vivo against several different tumors, employing various treatment schedules and routes of administration.
Samples of the test compounds of Examples 1-10 and a number of structurally-related control compounds were tested in accordance with National Cancer Institute test protocol 3LE31 (NCI Protocol 1.100, Cancer Chemotherapy Reports Part 3, Vol. 3, No. 2, September 1972) to determine the effects of the several compounds on i.p.-implanted L1210 leukemia (J. Nat'l. Cancer Inst. 13(5):1328, 1953). Each test involved implantation of the leukemia cells in six DBA/2 mice, one sex per experiment, the male mice weighing a minimum of 18 grams and the female mice weighing a minimum of 17 grams, and all of the test animals being within a three gram weight range. The test compound was administered by i.p. injections, in 0.1 ml. doses of diluted ascitic fluid (10^5 cells per dose), commencing one day after the tumor implant and continuing daily for nine days.
The test animals were weighed and survivors recorded on a regular basis during a thirty day test period. The ratio of survival time for the treated and control animals (T/C) was determined as a percentage.
The tests were carried out at varying dosage levels and with varying numbers of repetitions, depending upon the results obtained with each test compoud. […] A reproducible T/C of 150% or higher is considered significant activity.
The number of mice "cured", viz., those surviving from each animal test group after the thirty day test period, is indicated in parenthesis following the T/C percentage data in Table III below: […]

[1] = 200 mg/kg i.p. daily for nine days
[2] = Mus musculus, L1210, ip, 25 mg/kg i.p. daily for nine days, read-out: T/C % (survival time treated/control)
[3] = Mus musculus, L1210, ip, 50 mg/kg i.p. daily for nine days, read-out: T/C % (survival time treated/control)
[4] = Mus musculus, L1210, ip, 100 mg/kg i.p. daily for nine days, read-out: T/C % (survival time treated/control)
[5] = Mus musculus, L1210, ip, 200 mg/kg i.p. daily for nine days, read-out: T/C % (survival time treated/control)
[6] = 25 mg/kg i.p. daily for nine days
[7] = 50 mg/kg i.p. daily for nine days
[8] = 100 mg/kg i.p. daily for nine days
[9] = 400 mg/kg i.p. daily for nine days

| SMILES | T/C % (survival time treated/control) [1] | response vs control in vivo at 25 mg/kg [2] | response vs control in vivo at 50 mg/kg [3] | response vs control in vivo at 100 mg/kg [4] | T/C % (survival time treated/control) [7] | T/C % (survival time treated/control) [8] | further results |
| --- | --- | --- | --- | --- | --- | --- | --- |
| O=C(Nc1ccc(Cl)cc1)c1c(O)[nH]c(=S)[nH]c1=O [Control A] | Toxic | 110% | 121% | 125% | – | – | T/C (3LE31, upon further testing): less than 125%; activity in i.p.-implanted lymphoid leukemia test (in words): inactive |
| O=C(Nc1ccccc1)c1c(O)[nH]c(=O)[nH]c1=O [Control B] | – | 118% | – | – | – | – | number of mice cured (surviving after thirty day test period) [1]: 2; activity in i.p.-implanted lymphoid leukemia test (in words): exhibited significant activity |
| O=C(Nc1ccccc1)c1c(O)[nH]c(=O)[nH]c1=O [Control C] | – | – | – | – | – | – | activity in i.p.-implanted lymphoid leukemia test (in words): exhibited significant activity; response vs control in vivo at 400 mg/kg (Mus musculus, L1210, ip, 400 mg/kg i.p. daily for nine days, read-out: T/C % (survival time treated/control)): 233% |
| Cc1ccccc1NC(=O)c1c(O)[nH]c(=O)[nH]c1=O [Control D] | – | 108% | 104% | 106% | – | – | response vs control in vivo at 200 mg/kg [5]: 124% |
| COc1ccc(NC(=O)c2c(O)[nH]c(=O)[nH]c2=O)cc1 [Control F] | – | 109% | 105% | 105% | – | – | response vs control in vivo at 200 mg/kg [5]: 117% |
| Cn1c(=S)[nH]c(O)c(C(=O)Nc2ccccc2)c1=O [Control G] | Toxic | 94% | 98% | 87% | – | – | – |
| Cn1c(=S)[nH]c(O)c(C(=O)Nc2ccccc2)c1=O [Control H] | Toxic | – | – | – | Toxic | Toxic | T/C % (survival time treated/control) [6]: Toxic; response vs control in vivo at 1.56 mg/kg (Mus musculus, L1210, ip, 1.56 mg/kg i.p. daily for nine days, read-out: T/C % (survival time treated/control)): 97%; response vs control in vivo at 3.12 mg/kg (Mus musculus, L1210, ip, 3.12 mg/kg i.p. daily for nine days, read-out: T/C % (survival time treated/control)): 98%; response vs control in vivo at 6.25 mg/kg (Mus musculus, L1210, ip, 6.25 mg/kg i.p. daily for nine days, read-out: T/C % (survival time treated/control)): 98%; response vs control in vivo at 12.5 mg/kg (Mus musculus, L1210, ip, 12.5 mg/kg i.p. daily for nine days, read-out: T/C % (survival time treated/control)): 98% |
| Cn1c(=S)[nH]c(O)c(C(=O)Nc2cccc([N+](=O)[O-])c2)c1=O [Control I] | – | 102% | 98% | 102% | – | – | response vs control in vivo at 200 mg/kg [5]: 112% |
| Cn1c(=S)[nH]c(O)c(C(=O)Nc2cccc([N+](=O)[O-])c2)c1=O [Control J] | 101% | – | – | – | 94% | 104% | T/C % (survival time treated/control) [6]: 100% |
| Cn1c(O)c(C(=O)Nc2ccccc2)c(=O)n(C)c1=S [Control K] | Toxic | 107% | 109% | 121% | – | – | – |
| Cn1c(O)c(C(=O)Nc2ccccc2)c(=O)n(C)c1=S [Control L] | Toxic | – | – | – | Toxic | Toxic | T/C % (survival time treated/control) [6]: 108% |
| Cn1c(O)c(C(=O)Nc2ccc(Cl)cc2)c(=O)n(C)c1=S [Control M] | Toxic | – | – | – | Toxic | Toxic | T/C % (survival time treated/control) [6]: Toxic; response vs control in vivo at 1.5 mg/kg (Mus musculus, L1210, ip, 1.5 mg/kg i.p. daily for nine days, read-out: T/C % (survival time treated/control)): 106%; response vs control in vivo at 3 mg/kg (Mus musculus, L1210, ip, 3 mg/kg i.p. daily for nine days, read-out: T/C % (survival time treated/control)): 92%; response vs control in vivo at 6 mg/kg (Mus musculus, L1210, ip, 6 mg/kg i.p. daily for nine days, read-out: T/C % (survival time treated/control)): 95%; response vs control in vivo at 12 mg/kg (Mus musculus, L1210, ip, 12 mg/kg i.p. daily for nine days, read-out: T/C % (survival time treated/control)): 106%; response vs control in vivo at 0.75 mg/kg (Mus musculus, L1210, ip, .75 mg/kg i.p. daily for nine days, read-out: T/C % (survival time treated/control)): 102% |
| Cc1ccc(C)c(NC(=O)c2c(O)n(C)c(=S)n(C)c2=O)c1 [Control N] | Toxic | 103% | – | – | Toxic | Toxic | – |
| O=C(Nc1ccccc1)c1c(O)[nH]c(=S)n(-c2ccccc2)c1=O [Control O] | Toxic | 104% | 115% | 123% | – | – | – |
| O=C(Nc1ccccc1)c1c(O)[nH]c(=S)n(-c2ccccc2)c1=O [Control P] | Toxic | – | – | – | 116% | Toxic | T/C % (survival time treated/control) [6]: 110% |
| O=C(Nc1ccc(Cl)cc1)c1c(O)[nH]c(=S)n(-c2ccccc2)c1=O [Control Q] | Toxic | 100% | – | – | 92% | 112% | – |
| O=C(Nc1ccc(Cl)cc1)c1c(O)[nH]c(=S)n(-c2ccccc2)c1=O [Control R] | Toxic | – | – | – | 121% | 88% | T/C % (survival time treated/control) [6]: 106% |
| O=C(Nc1ccccc1)c1c(O)n(-c2ccccc2)c(=S)n(-c2ccccc2)c1=O [Control S] | – | 97% | 100% | – | – | – | – |
| O=C(Nc1ccccc1)c1c(O)n(-c2ccccc2)c(=S)n(-c2ccccc2)c1=O [Control T] | – | – | – | – | 109% | – | T/C % (survival time treated/control) [6]: 102%; T/C % (survival time treated/control) [9]: 109% |
| CC(C)c1cccc(C(C)C)c1NC(=O)c1c(O)n(-c2ccccc2)c(=S)n(-c2ccccc2)c1=O [Control U] | – | 101% | 100% | 104% | – | – | response vs control in vivo at 200 mg/kg [5]: 112% |
| COC(=O)c1ccccc1NC(=O)c1c(O)n(-c2ccccc2)c(=S)n(-c2ccccc2)c1=O [Control V] | Toxic | 102% | 106% | – | – | Toxic | – |
| O=c1[nH]c(=S)[nH]c(O)c1C(=S)Nc1ccccc1 [Control W] | – | 101% | 102% | 94% | – | – | response vs control in vivo at 200 mg/kg [5]: 103% |
| O=c1[nH]c(O)c(C(=S)Nc2ccccc2)c(=O)[nH]1 [Control X] | – | 105% | 98% | 97% | – | – | response vs control in vivo at 200 mg/kg [5]: 104% |
| O=C(Nc1ccccc1Cl)c1c(O)[nH]c(=S)[nH]c1=O [Example 2, N-(2-chlorophenyl)-1,2,3,4-tetrahydro-6-hydroxy-4-oxo-2-thioxo-5-pyrimidinecarboxamide] | – | 106% | 118% | 127% | – | – | number of mice cured (surviving after thirty day test period) [1]: 1; T/C % (survival time treated/control) [9]: Toxic |
| Cc1ccccc1NC(=O)c1c(O)[nH]c(=S)[nH]c1=O [Example 3, 1,2,3,4-tetrahydro-6-hydroxy-N-(2-methylphenyl)-4-oxo-2-thioxo-5-pyrimidine-carboxamide] | Toxic | 108% | 112% | – | – | – | – |
| O=C(Nc1cccc(F)c1)c1c(O)[nH]c(=S)[nH]c1=O [Example 4, N-(3-fluorophenyl)-1,2,3,4-tetrahydro-6-hydroxy-4-oxo-2-thioxo-5-pyrmidinecarboxamide] | – | 114% | 114% | 128% | – | – | response vs control in vivo at 200 mg/kg [5]: 155% |
